Tested on: sickled blood cells (SS blood erythrocytes)
Test: In vitro anti-sickling activity, Emmel test on SS blood
Type: cell-based
Conditions: for Emmel Test Result: 2% sodium metabisulphite, 2 hours anaerobic, compounds diluted in NaCl 0.9%
Protocol: Blood samples were collected from “Centre de Medecine Mixte et d'Anémie SS” located in Kinshasa, Democratic Republic of Congo (DRC). The blood samples were first characterised by Hb electrophoresis on cellulose acetate gel, in order to confirm their SS nature, as previously reported by Mpiana et al., 2007^6. Confirmed SS blood samples were refrigerated at ˜4° C., and used for Emmel test.
A drop of physiological solution was put on a glass slide and a drop of SS blood was added on the physiological solution. One drop of 2% sodium metabisulphite solution was added on the slide glass which was hermetically covered using a cover glass with melted paraffin wax and kept covered for 2 hours in order to accelerate the sickling of the blood. After 2 hours in anaerobic conditions, the blood sample became deoxygenated and adopted sickle shape. Assay was observed under an optical microscope and the number of observed erythrocytes was determined using Thomas' cell (Courtejoie, J. and Hartaing, I, 1992)^7.
SS blood samples were contacted at different concentrations with diluted samples of the compounds (8), (9), (10), and (11) using physiological solution (NaCl 0.9%) as dilution solvent, according to Emmel's test procedure as reported above and optical measurements were taken.
Pictures were obtained with an optical microscope (motic). In order to convert the photonic micrograph image into a digital image, a Canon digital camera (Zoom X6) was used to digitize micrographs using Motic Images 200 version 1.3 software, on Windows XP. Thomas' cell was used to observe the number of erythrocytes. The results of the in vitro anti-sickling activity of betulinic acid (8), 3-acetoxybetulinic acid (11), oleanolic acid (9) and maslinic acid (10) are shown in Table 1.

SMILES | Emmel Test Result | normalisation of sickled blood cells (Emmel test, in vitro)
CC1(C)CC[C@]2(C(=O)O)CC[C@]3(C)C(=CC[C@@H]4[C@@]5(C)C[C@@H](O)[C@H](O)C(C)(C)[C@@H]5CC[C@]43C)[C@@H]2C1 [DS/FS/2, Maslinic acid] | +++ (+++ = >70% normalisation of sickled blood cells.) | –
CC1(C)CC[C@]2(C(=O)O)CC[C@]3(C)C(=CC[C@@H]4[C@@]5(C)CC[C@H](O)C(C)(C)[C@@H]5CC[C@]43C)[C@@H]2C1 [DS/FS/1, Oleanolic acid] | + (+ = 10 to 50% normalisation of sickled blood cells.) | 10-50%
C=C(C)[C@@H]1CC[C@]2(C(=O)O)CC[C@]3(C)[C@H](CC[C@@H]4[C@@]5(C)CC[C@H](O)C(C)(C)[C@@H]5CC[C@]43C)[C@@H]12 [DS/10/C/A, Betulinic acid] | +++ (+++ = >70% normalisation of sickled blood cells.) | –
C=C(C)[C@@H]1CC[C@]2(C(=O)O)CC[C@]3(C)[C@H](CC[C@@H]4[C@@]5(C)CC[C@H](OC(C)=O)C(C)(C)[C@@H]5CC[C@]43C)[C@@H]12 [DS/10/C/Ab, 3-acetoxybetulinic acid] | +++ (+++ = >70% normalisation of sickled blood cells.) | –
